The record followed here is patent US7262318B2, “Substituted heteroaryl- and phenylsulfamoyl compounds” (Pfizer, Inc., priority 2004, dated 2007).

For this assay, the system named is transition cows. As to the kind of experiment: Blood non-esterified fatty acid (NEFA) concentrations in transition cows. Type of assay: in vivo, cow. Conditions: 0.5 mg/kg every other day from targeted day -7 pre partum and at calving, days 1–8, p<0.10, with the exception of day 5 (p=0.17). The protocol: Determination of Chances in Blood Non-esterified Fatty Acid (NEFA) Concentrations and Liver Triglycerides Levels:
Compounds are administered once or several times in the transition period at dose levels predicted to be effective by comparing results of in-vitro receptor affinity tests in laboratory species and pharmacokinetic evaluations in cattle. NEFA levels are determined via standard laboratory methods, for example, using the commercial WAKO NEFA kit (Wako Chemical Co., USA, Dallas, Tex., 994-75409), and liver triglyceride content is determined using the method as described in the literature (J. K. Drackley, J. J. Veenhuizen, M. J. Richard and J. W. Young, J Dairy Sci, 1991, 74, 4254)).
All animals may be obtained from a commercial dairy farm approximately thirty days prior to anticipated calving date. […]
As soon as possible post-calving (˜30 minutes) the cow is transferred to the freestall barn for the next scheduled milking (6:00 hrs and 19:00 hrs). […] Pre and post-calving NEFA samples are analyzed using the WAKO NEFA-C test kit (#994-75409). […] Tissues are transported on ice and stored frozen at −70° F. At the conclusion of the study, samples are analysed of liver triglyceride levels using the method described by Drackley, J. K. et al. (1991, J Dairy Sci (74):4254–4264).

Turning to `Cc1ccc(S(=O)(=O)Nc2ccc(-c3ccc(OC(F)(F)F)cc3)cc2)cc1C(=O)O` [Example T02, 2-Methyl-5-(4′-trifluoromethoxy-biphenyl-4-ylsulfamoyl)-benzoic acid], the “serum NEFA levels as compared to control” value is reported as “significantly lower”.
